Experimental data reported in PubChem BioAssay (NCI).
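The compound was tested at five concentrations on cells cultured in 96-well plates, with a 48-hour exposure period. Here, GI50 denotes the concentration required for 50% inhibition of growth. The concentration for full growth arrest is given as TGI.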

Columns and labels:
Experiment in all cases: inhibition of tumour cell growth, NCI panel, 48 h
HOP-92 NSCLC = test system: HOP-92 NSCLC
MALME-3M melanoma = test system: MALME-3M melanoma
SF-268 CNS = test system: SF-268 CNS
EKVX NSCLC = test system: EKVX NSCLC
A549 NSCLC = test system: A549 NSCLC
OVCAR-8 ovarian = test system: OVCAR-8 ovarian
IGROV1 ovarian = test system: IGROV1 ovarian
UACC-257 melanoma = test system: UACC-257 melanoma
A498 renal = test system: A498 renal
HT29 colon = test system: HT29 colon
CCRF-CEM leukemia = test system: CCRF-CEM leukemia
OVCAR-3 ovarian = test system: OVCAR-3 ovarian
MDA-MB-231 breast = test system: MDA-MB-231 breast
HCT-116 colon = test system: HCT-116 colon
HCC-2998 colon = test system: HCC-2998 colon
SK-MEL-2 melanoma = test system: SK-MEL-2 melanoma
CAKI-1 renal = test system: CAKI-1 renal
PC-3 prostate = test system: PC-3 prostate
UACC-62 melanoma = test system: UACC-62 melanoma
OVCAR-4 ovarian = test system: OVCAR-4 ovarian
TK-10 renal = test system: TK-10 renal
KM12 colon = test system: KM12 colon
NCI-H226 lung = test system: NCI-H226 lung
UO-31 renal = test system: UO-31 renal
SW-620 colon = test system: SW-620 colon
SNB-19 CNS = test system: SNB-19 CNS
M14 melanoma = test system: M14 melanoma
SK-MEL-5 melanoma = test system: SK-MEL-5 melanoma
T-47D breast = test system: T-47D breast
HOP-62 NSCLC = test system: HOP-62 NSCLC
NCI-H23 lung = test system: NCI-H23 lung
BT-549 breast = test system: BT-549 breast
DU-145 prostate = test system: DU-145 prostate
786-0 renal = test system: 786-0 renal
HS 578T breast = test system: HS 578T breast
RXF 393 renal = test system: RXF 393 renal
SF-295 CNS = test system: SF-295 CNS
U251 CNS = test system: U251 CNS
COLO 205 colon = test system: COLO 205 colon
SNB-75 CNS = test system: SNB-75 CNS
SK-MEL-28 melanoma = test system: SK-MEL-28 melanoma
NCI-H460 lung = test system: NCI-H460 lung
OVCAR-5 ovarian = test system: OVCAR-5 ovarian
MCF7 breast = test system: MCF7 breast
SF-539 CNS = test system: SF-539 CNS
LOX IMVI melanoma = test system: LOX IMVI melanoma
RPMI-8226 leukemia = test system: RPMI-8226 leukemia
SK-OV-3 ovarian = test system: SK-OV-3 ovarian
MDA-MB-435 = test system: MDA-MB-435
NCI/ADR-RES ovarian = test system: NCI/ADR-RES ovarian
ACHN renal = test system: ACHN renal
HCT-15 colon = test system: HCT-15 colon
SN12C renal = test system: SN12C renal
NCI-H522 lung = test system: NCI-H522 lung

Q: What does the source list for `Oc1c(I)cc(I)cc1CNCCN(Cc1ccccn1)Cc1ccccn1`?
A: GI50 (HOP-92 NSCLC): 1.54 µM; TGI (HOP-92 NSCLC): 3.07 µM; GI50 (MALME-3M melanoma): 1.53 µM; TGI (MALME-3M melanoma): 3.33 µM; GI50 (SF-268 CNS): 1.01 µM; TGI (SF-268 CNS): 2.4 µM; GI50 (EKVX NSCLC): 0.911 µM; TGI (EKVX NSCLC): 2.11 µM; GI50 (A549 NSCLC): 1.24 µM; TGI (A549 NSCLC): 2.91 µM; GI50 (OVCAR-8 ovarian): 2.14 µM; TGI (OVCAR-8 ovarian): 8.16 µM; GI50 (IGROV1 ovarian): 0.83 µM; TGI (IGROV1 ovarian): 2.98 µM; GI50 (UACC-257 melanoma): 1.89 µM; TGI (UACC-257 melanoma): 4.25 µM; GI50 (A498 renal): 1.67 µM; TGI (A498 renal): 3.04 µM; GI50 (HT29 colon): 2.3 µM; TGI (HT29 colon): 5.96 µM; GI50 (CCRF-CEM leukemia): 1.87 µM; TGI (CCRF-CEM leukemia): 21.1 µM; GI50 (OVCAR-3 ovarian): 1.32 µM; TGI (OVCAR-3 ovarian): 2.73 µM; GI50 (MDA-MB-231 breast): 1.15 µM; TGI (MDA-MB-231 breast): 3.16 µM; GI50 (HCT-116 colon): 1.28 µM; TGI (HCT-116 colon): 2.61 µM; GI50 (HCC-2998 colon): 1.47 µM; TGI (HCC-2998 colon): 2.95 µM; GI50 (SK-MEL-2 melanoma): 1.74 µM; TGI (SK-MEL-2 melanoma): 3.8 µM; GI50 (CAKI-1 renal): 1.32 µM; TGI (CAKI-1 renal): 2.68 µM; GI50 (PC-3 prostate): 1.16 µM; TGI (PC-3 prostate): 2.92 µM; GI50 (UACC-62 melanoma): 1.49 µM; TGI (UACC-62 melanoma): 4.21 µM; GI50 (OVCAR-4 ovarian): 0.896 µM; TGI (OVCAR-4 ovarian): 2.23 µM; GI50 (TK-10 renal): 1.26 µM; TGI (TK-10 renal): 2.54 µM; GI50 (KM12 colon): 1.2 µM; TGI (KM12 colon): 2.67 µM; GI50 (NCI-H226 lung): 1.07 µM; TGI (NCI-H226 lung): 2.75 µM; GI50 (UO-31 renal): 0.779 µM; TGI (UO-31 renal): 2.07 µM; GI50 (SW-620 colon): 1.65 µM; TGI (SW-620 colon): 3.47 µM; GI50 (SNB-19 CNS): 0.693 µM; TGI (SNB-19 CNS): 2.11 µM; GI50 (M14 melanoma): 1.45 µM; TGI (M14 melanoma): 3 µM; GI50 (SK-MEL-5 melanoma): 1.15 µM; TGI (SK-MEL-5 melanoma): 2.45 µM; GI50 (T-47D breast): 1.46 µM; TGI (T-47D breast): 2.83 µM; GI50 (HOP-62 NSCLC): 0.859 µM; TGI (HOP-62 NSCLC): 2.67 µM; GI50 (NCI-H23 lung): 1.76 µM; TGI (NCI-H23 lung): 4.66 µM; GI50 (BT-549 breast): 1.24 µM; TGI (BT-549 breast): 2.52 µM; GI50 (DU-145 prostate): 1.07 µM; TGI (DU-145 prostate): 2.27 µM; GI50 (786-0 renal): 1.44 µM; TGI (786-0 renal): 2.75 µM; GI50 (HS 578T breast): 2.12 µM; TGI (HS 578T breast): 7.43 µM; GI50 (RXF 393 renal): 1.5 µM; TGI (RXF 393 renal): 2.99 µM; GI50 (SF-295 CNS): 1.23 µM; TGI (SF-295 CNS): 2.63 µM; GI50 (U251 CNS): 0.827 µM; TGI (U251 CNS): 2.89 µM; GI50 (COLO 205 colon): 1.49 µM; TGI (COLO 205 colon): 3.68 µM; GI50 (SNB-75 CNS): 0.544 µM; TGI (SNB-75 CNS): 2.06 µM; GI50 (SK-MEL-28 melanoma): 1.41 µM; TGI (SK-MEL-28 melanoma): 3.64 µM; GI50 (NCI-H460 lung): 0.804 µM; TGI (NCI-H460 lung): 2.48 µM; GI50 (OVCAR-5 ovarian): 1.42 µM; TGI (OVCAR-5 ovarian): 4.18 µM; GI50 (MCF7 breast): 1.21 µM; TGI (MCF7 breast): 3.19 µM; GI50 (SF-539 CNS): 1.14 µM; TGI (SF-539 CNS): 2.42 µM; GI50 (LOX IMVI melanoma): 1.14 µM; TGI (LOX IMVI melanoma): 2.45 µM; GI50 (RPMI-8226 leukemia): 1.66 µM; TGI (RPMI-8226 leukemia): 7.64 µM; GI50 (SK-OV-3 ovarian): 1.21 µM; TGI (SK-OV-3 ovarian): 2.58 µM; GI50 (MDA-MB-435): 1.55 µM; TGI (MDA-MB-435): 3.15 µM; GI50 (NCI/ADR-RES ovarian): 1.8 µM; TGI (NCI/ADR-RES ovarian): 4.79 µM; GI50 (ACHN renal): 1.13 µM; TGI (ACHN renal): 2.34 µM; GI50 (HCT-15 colon): 1.18 µM; TGI (HCT-15 colon): 4.17 µM; GI50 (SN12C renal): 0.667 µM; TGI (SN12C renal): 2.37 µM; GI50 (NCI-H522 lung): 1.37 µM; TGI (NCI-H522 lung): 3.34 µM
